In article PMC3217161 (2011):

Target: D-xylose isomerase (Streptomyces pseudogriseolus, UniProt P24300)
Test: competitive inhibition of D-xylose isomerization
Type: biochemical

Chain of D-xylose isomerase (P24300 2-388): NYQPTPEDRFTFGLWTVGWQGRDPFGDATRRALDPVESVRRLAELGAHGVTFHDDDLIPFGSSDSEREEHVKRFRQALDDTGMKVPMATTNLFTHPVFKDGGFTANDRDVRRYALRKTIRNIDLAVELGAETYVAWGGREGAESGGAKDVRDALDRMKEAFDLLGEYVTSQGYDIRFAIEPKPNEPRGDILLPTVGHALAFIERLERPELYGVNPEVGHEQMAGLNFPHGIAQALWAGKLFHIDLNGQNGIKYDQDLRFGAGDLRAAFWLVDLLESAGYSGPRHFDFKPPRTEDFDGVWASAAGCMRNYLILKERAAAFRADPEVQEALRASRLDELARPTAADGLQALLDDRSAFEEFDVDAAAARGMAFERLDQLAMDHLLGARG

Ki: 3 mM
Structure (SMILES): O=C[C@H](O)CO [DGA, D-glyceraldehyde]
